In patent publication US10550105B2 (Ribon Therapeutics Inc., priority 2018, dated 2020) one finds IC50 data, which are given here for 38 molecules.

Some results are limits rather than exact numbers.

This assay deals with PARP7 (Homo sapiens (Human), UniProt Q7Z3E1). Kind of assay: Enzymatic assay for inhibition of PARP7: TR-FRET displacement of biotinylated Probe A from the TIPARP active site. The class given is binding. Conditions: Table A-1. In short, it runs like this: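 TR-FRET, ex 320 nm / em 615 and 665 nm. Signal ratio reflects complex formation.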
PARP7, sequence (Q7Z3E1 whole entry): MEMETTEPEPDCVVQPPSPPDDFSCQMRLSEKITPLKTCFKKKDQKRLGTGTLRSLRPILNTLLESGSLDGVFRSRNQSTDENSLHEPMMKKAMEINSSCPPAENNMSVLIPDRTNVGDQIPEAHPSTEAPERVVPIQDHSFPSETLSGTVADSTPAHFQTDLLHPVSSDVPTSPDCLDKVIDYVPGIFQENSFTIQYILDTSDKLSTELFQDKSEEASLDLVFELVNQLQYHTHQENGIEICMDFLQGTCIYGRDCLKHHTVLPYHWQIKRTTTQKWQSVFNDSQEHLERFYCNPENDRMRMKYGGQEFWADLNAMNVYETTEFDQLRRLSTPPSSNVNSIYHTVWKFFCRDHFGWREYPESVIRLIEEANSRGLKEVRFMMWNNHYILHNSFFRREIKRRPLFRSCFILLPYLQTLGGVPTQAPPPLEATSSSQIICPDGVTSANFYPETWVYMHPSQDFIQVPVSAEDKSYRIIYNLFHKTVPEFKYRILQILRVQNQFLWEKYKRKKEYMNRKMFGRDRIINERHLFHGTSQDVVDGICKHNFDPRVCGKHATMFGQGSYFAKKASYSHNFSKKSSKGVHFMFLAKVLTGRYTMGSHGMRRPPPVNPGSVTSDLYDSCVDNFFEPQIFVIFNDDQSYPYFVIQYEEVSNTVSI
Usually IC50 stands for the concentration that inhibits the measured activity by half. A low value points to inhibition by little substance. For `CC(=O)N(C)CC1c2ccccc2CN1c1cn[nH]c(=O)c1C(F)(F)F` (centres unmarked) [Example 276, N-Methyl-N-((2-(6-oxo-5-(trifluoromethyl)-1,6-dihydropyridazin-4-yl)isoindolin-1-yl)methyl)acetamide], the IC50 was at least 1000 nM. The figure for `CN(C)C(=O)c1cccc2c1CN(c1cn[nH]c(=O)c1C(F)(F)F)C2` [Example 277, N,N-Dimethyl-2-(6-oxo-5-(trifluoromethyl)-1,6-dihydropyridazin-4-yl)isoindoline-4-carboxamide] is 100 to 1000 nM; for `CC(O)c1cccc2c1CN(c1cn[nH]c(=O)c1C(F)(F)F)C2` (centres unmarked) [Example 278, 5-(4-(1-Hydroxyethyl)isoindolin-2-yl)-4-(trifluoromethyl)pyridazin-3(2H)-one] it is 100 to 1000 nM. The figure for `O=c1[nH]ncc(N2Cc3cc(F)c(OC4CCNCC4)cc3C2)c1C(F)(F)F` [Example 279, 5-(5-Fluoro-6-(piperidin-4-yloxy)isoindolin-2-yl)-4-(trifluoromethyl)pyridazin-3(2H)-one] is under 100 nM; for `O=c1[nH]ncc(N2Cc3ccncc3C2)c1C(F)(F)F` [Example 280, 5-(1,3-Dihydro-2H-pyrrolo[3,4-c]pyridin-2-yl)-4-(trifluoromethyl)pyridazin-3(2H)-one] it is 100 to 1000 nM. The figure for `CN(C)C1CCN(c2cccc3c2CN(c2cn[nH]c(=O)c2C(F)(F)F)C3)CC1` [Example 281, 5-(4-(4-(Dimethylamino)piperidin-1-yl)isoindolin-2-yl)-4-(trifluoromethyl)pyridazin-3(2H)-one] is 100 to 1000 nM; for `CN(c1cccc2c1CN(c1cn[nH]c(=O)c1C(F)(F)F)C2)C1CCOCC1` [Example 282, 5-(4-(Methyl(tetrahydro-2H-pyran-4-yl)amino)isoindolin-2-yl)-4-(trifluoromethyl)pyridazin-3(2H)-one] it is 100 to 1000 nM.

Turning to `O=c1[nH]ncc(N2Cc3c(F)ccc(OCCO)c3C2)c1C(F)(F)F` [Example 283, 5-(4-Fluoro-7-(2-hydroxyethoxy)isoindolin-2-yl)-4-(trifluoromethyl)pyridazin-3(2H)-one], the IC50 was 100 to 1000 nM.

For the molecule `O=c1[nH]ncc(N2Cc3cccc(N4CCCC4)c3C2)c1C(F)(F)F` [Example 284, 5-(4-(Pyrrolidin-1-yl)isoindolin-2-yl)-4-(trifluoromethyl)pyridazin-3(2H)-one], the IC50 is under 100 nM. The figure for `CN(C)C1CCN(c2cccc3c2CN(c2cn[nH]c(=O)c2C(F)(F)F)C3)C1` (centres unmarked) [Example 285, 5-(4-(3-(Dimethylamino)pyrrolidin-1-yl)isoindolin-2-yl)-4-(trifluoromethyl)pyridazin-3(2H)-one] is under 100 nM; for `O=c1[nH]ncc(N2Cc3c(F)ccc(OCCN4CCOCC4)c3C2)c1C(F)(F)F` [Example 286, 5-(4-Fluoro-7-(2-morpholinoethoxy)isoindolin-2-yl)-4-(trifluoromethyl)pyridazin-3(2H)-one] it is under 100 nM; for `CC(C)c1c(N2Cc3ccc(OC4CCCNC4)cc3C2)cn[nH]c1=O` (centres unmarked) [Example 287, 4-Isopropyl-5-(5-(piperidin-3-yloxy)isoindolin-2-yl)pyridazin-3(2H)-one] it is at least 1000 nM. The figure for `O=c1[nH]ncc(N2Cc3ccc(O[C@@H]4CCCNC4)cc3C2)c1C(F)(F)F` [Example 288, (R)-5-(5-(Piperidin-3-yloxy)isoindolin-2-yl)-4-(trifluoromethyl)pyridazin-3(2H)-one] is under 100 nM. For the molecule `O=c1[nH]ncc(N2Cc3ccc(O[C@H]4CCCNC4)cc3C2)c1C(F)(F)F` [Example 289, (S)-5-(5-(Piperidin-3-yloxy)isoindolin-2-yl)-4-(trifluoromethyl)pyridazin-3(2H)-one], the IC50 is under 100 nM.

In turn, `O=c1[nH]ncc(N2Cc3cccc(NC4CCOCC4)c3C2)c1C(F)(F)F` [Example 290, 5-(4-((Tetrahydro-2H-pyran-4-yl)amino)isoindolin-2-yl)-4-(trifluoromethyl)pyridazin-3(2H)-one] returned a half-maximal inhibitory concentration (IC50) of 100 to 1000 nM. In turn, `O=c1[nH]ncc(N2Cc3c(F)ccc(OC4CCNCC4)c3C2)c1C(F)(F)F` [Example 291, 5-(4-Fluoro-7-(piperidin-4-yloxy)isoindolin-2-yl)-4-(trifluoromethyl)pyridazin-3(2H)-one] gave an IC50 of 100 to 1000 nM. The figure for `CC(C)c1c(N2Cc3ccc(O[C@@H]4CCCNC4)cc3C2)cn[nH]c1=O` [Example 292, (R)-4-Isopropyl-5-(5-(piperidin-3-yloxy)isoindolin-2-yl)pyridazin-3(2H)-one] is at least 1000 nM; for `CC(C)c1c(N2Cc3ccc(O[C@H]4CCCNC4)cc3C2)cn[nH]c1=O` [Example 293, (S)-4-Isopropyl-5-(5-(piperidin-3-yloxy)isoindolin-2-yl)pyridazin-3(2H)-one] it is at least 1000 nM; for `CC(=O)N1CCN(c2cccc3c2CN(c2cn[nH]c(=O)c2C(F)(F)F)C3)CC1` [Example 294, 5-(4-(4-Acetylpiperazin-1-yl)isoindolin-2-yl)-4-(trifluoromethyl)pyridazin-3(2H)-one] it is under 100 nM. The figure for `O=c1[nH]ncc(N2Cc3cccc(N4CCNCC4)c3C2)c1C(F)(F)F` [Example 295, 5-(4-(Piperazin-1-yl)isoindolin-2-yl)-4-(trifluoromethyl)pyridazin-3(2H)-one] is 100 to 1000 nM; for `NC1CCN(c2cccc3c2CN(c2cn[nH]c(=O)c2C(F)(F)F)C3)CC1` [Example 296, 5-(4-(4-Aminopiperidin-1-yl)isoindolin-2-yl)-4-(trifluoromethyl)pyridazin-3(2H)-one] it is 100 to 1000 nM; for `O=c1[nH]ncc(N2Cc3cccc(NC4CCNCC4)c3C2)c1C(F)(F)F` [Example 297, 5-(4-(Piperidin-4-ylamino)isoindolin-2-yl)-4-(trifluoromethyl)pyridazin-3(2H)-one] it is 100 to 1000 nM.

In turn, `CC1(C)CC(Nc2cccc3c2CN(c2cn[nH]c(=O)c2C(F)(F)F)C3)CC(C)(C)N1` [Example 300, 5-(4-((2,2,6,6-Tetramethylpiperidin-4-yl)amino)isoindolin-2-yl)-4-(trifluoromethyl)pyridazin-3(2H)-one] registered an IC50 of 100 to 1000 nM. The molecule `NC1CCCN(c2cccc3c2CN(c2cn[nH]c(=O)c2C(F)(F)F)C3)C1` (centres unmarked) [Example 301, 5-(4-(3-Aminopiperidin-1-yl)isoindolin-2-yl)-4-(trifluoromethyl)pyridazin-3(2H)-one] came in with a 50% inhibitory concentration (IC50) of 100 to 1000 nM.

Regarding `CN(c1cccc2c1CN(c1cn[nH]c(=O)c1C(F)(F)F)C2)C1CCNCC1` [Example 302, 5-(4-(Methyl(piperidin-4-yl)amino)isoindolin-2-yl)-4-(trifluoromethyl)pyridazin-3(2H)-one], the IC50 lay within 100 to 1000 nM.

Turning to `COc1ccc2c(n1)CN(c1cn[nH]c(=O)c1C(F)(F)F)C2` [Example 303, 5-(2-Methoxy-5,7-dihydro-6H-pyrrolo[3,4-b]pyridin-6-yl)-4-(trifluoromethyl)pyridazin-3(2H)-one], the IC50 is under 100 nM. The figure for `O=c1[nH]ncc(N2Cc3ccc(Cl)nc3C2)c1C(F)(F)F` [Example 304, 5-(2-Chloro-5,7-dihydro-6H-pyrrolo[3,4-b]pyridin-6-yl)-4-(trifluoromethyl)pyridazin-3(2H)-one] is under 100 nM; for `O=c1[nH]ncc(N2Cc3cccc(N4CCC(O)C4)c3C2)c1C(F)(F)F` (centres unmarked) [Example 305, 5-(4-(3-Hydroxypyrrolidin-1-yl)isoindolin-2-yl)-4-(trifluoromethyl)pyridazin-3(2H)-one 2,2,2-trifluoroacetic acid] it is under 100 nM; for `NC1CCN(c2cccc3c2CN(c2cn[nH]c(=O)c2C(F)(F)F)C3)C1` (centres unmarked) [Example 306, 5-(4-(3-Aminopyrrolidin-1-yl)isoindolin-2-yl)-4-(trifluoromethyl)pyridazin-3(2H)-one] it is under 100 nM. In turn, `O=c1[nH]ncc(N2Cc3cccc(NC4CCCOC4)c3C2)c1C(F)(F)F` (centres unmarked) [Example 307, 5-(4-((Tetrahydro-2H-pyran-3-yl)amino)isoindolin-2-yl)-4-(trifluoromethyl)pyridazin-3(2H)-one] gave an IC50 of 100 to 1000 nM.

The molecule `COc1cccc2c1CN(c1cn[nH]c(=O)c1C(F)(F)F)C2C` (centres unmarked) [Example 308, 5-(4-Methoxy-1-methylisoindolin-2-yl)-4-(trifluoromethyl)pyridazin-3(2H)-one] came in with an IC50 of 100 to 1000 nM. Molecule `COc1cccc2c1C(C)N(c1cn[nH]c(=O)c1C(F)(F)F)C2` (centres unmarked) [Example 309, 5-(7-Methoxy-1-methylisoindolin-2-yl)-4-(trifluoromethyl)pyridazin-3(2H)-one] came in with an IC50 of 100 to 1000 nM. The figure for `CCC1c2ccccc2CN1c1cn[nH]c(=O)c1C(F)(F)F` (centres unmarked) [Example 310, 5-(1-Ethylisoindolin-2-yl)-4-(trifluoromethyl)pyridazin-3(2H)-one] is at least 1000 nM; for `COCCOc1ccc2c(n1)CN(c1cn[nH]c(=O)c1C(F)(F)F)C2` [Example 311, 5-(2-(2-Methoxyethoxy)-5,7-dihydro-6H-pyrrolo[3,4-b]pyridin-6-yl)-4-(trifluoromethyl)pyridazin-3(2H)-one] it is 100 to 1000 nM.

For the molecule `O=c1[nH]ncc(N2Cc3ccc(OCCO)nc3C2)c1C(F)(F)F` [Example 312, 5-(2-(2-Hydroxyethoxy)-5,7-dihydro-6H-pyrrolo[3,4-b]pyridin-6-yl)-4-(trifluoromethyl)pyridazin-3(2H)-one], the IC50 lay within 100 to 1000 nM.

With `O=c1[nH]ncc(N2Cc3ccc(OCc4cccnc4)nc3C2)c1C(F)(F)F` [Example 313, 5-(2-(Pyridin-3-ylmethoxy)-5,7-dihydro-6H-pyrrolo[3,4-b]pyridin-6-yl)-4-(trifluoromethyl)pyridazin-3(2H)-one], the IC50 is under 100 nM. The figure for `CN1CCN(c2cccc3c2CN(c2cn[nH]c(=O)c2C(F)(F)F)C3)CC1` [Example 314, 5-(4-(4-Methylpiperazin-1-yl)isoindolin-2-yl)-4-(trifluoromethyl)pyridazin-3(2H)-one] is 100 to 1000 nM; for `COc1cc2c(cc1F)CN(c1cn[nH]c(=O)c1C(F)(F)F)C2C` (centres unmarked) [Example 315, 5-(5-Fluoro-6-methoxy-1-methylisoindolin-2-yl)-4-(trifluoromethyl)pyridazin-3(2H)-one] it is 100 to 1000 nM.
